# Reference: patent publication US10226514B2, “Methods and compositions for reducing blood glucose levels” (The Children's Medical Center Corporation, priority 2011, dated 2019)
# “Also recorded” adds a separate entry of the source.
# How the values were obtained:
# XBP1s [1] = test: Cytoplasmic and nuclear XBP1s protein in cells; type: cell-based, mouse; settings: anisomycin 25 ng/ml, two hours
# Experimental: Cytoplasmic and nuclear protein fractions were extracted from cells by using nuclear protein extraction kit from Active Motif (Carlsbad, Calif.). Cells were maintained in 10 cm tissue culture dishes for nuclear/cytoplasmic extraction. After removal of the media, cells were washed with ice-cold phosphate buffered saline (PBS) containing phosphatase inhibitors. Subsequently, 3 ml of ice-cold PBS with phosphatase inhibitors was added and then cells were scrapped out of the dish. Collected cells were separated from PBS by centrifugation for 5 minutes at 500 rpm and resuspended with 500 μl of 1× hypotonic buffer. After 15-minute incubation in hypotonic buffer on ice, 25 μl of supplied detergent was added and cells were vortexed 10 seconds. Cells were centrifuged for 30 seconds at 14,000×g and supernatant (cytoplasmic fraction) was saved for further analysis. Remaining pellet, which contains nuclei, were resuspended with 50 μl of provided complete lysis buffer with 1 mM dithiothreitol (DTT), vortexed 10 seconds, and incubated for 30 minutes on ice. After 30-second vortexing and 10-minute centrifugation at 14,000×g, the supernatant was collected and analyzed as nuclear fraction.
# XBP1s mRNA = XBP1s mRNA levels and stability (Q-PCR, actinomycin D); type: cell-based, mouse
# Experimental: Total RNA was extracted from cells or animal tissues using Trizol reagent (Invitrogen) and transcribed into cDNA using cDNA synthesis kit (Bio-Rad). The gene expression analysis was performed with iQ5 Multicolor Real-Time PCR Detection System (Bio-Rad) with SYBR Green Supermix (Bio-Rad). The mRNA level was normalized to 18S as a house keeping gene. The primer sequences used were:
# For mRNA stability determination, MEF cells were infected with Ad-XBP1s. Sixteen hour after the infection, cells were treated with anisomycin (25 ng/ml) or vehicle (DMSO) for 1 h. Actinomycin D (10 μg/ml, Sigma) was added to the medium. Cells were flash frozen in liquid nitrogen at various time points. mRNA levels were determined via Q-PCR.
# XBP1s [2] = test: XBP1s levels in Ad-XBP1s-infected Fao cells; type: cell-based; settings: Ad-XBP1s-infected Fao cells (rat hepatoma)
# Experimental: MEF cells were from American Type Tissue Collection (ATCC). These cells were grown in Dulbecco's Modified Eagel Medium (DMEM) supplemented with 10% fetal bovine serum (FBS), 10 U/ml penicillin and 1 μg/ml streptomycin at 37° C. and 5% CO2. Fao cells were maintained in RPMI 1640 medium (Invitrogen) supplemented with 10% fetal bovine serum (FBS), 10 U/ml penicillin and 1 μg/ml streptomycin.
# Adenovirus expressing XBP1s T48A, XBP1s S61A, XBP1s T48A/S61A and MKK6Glu were produced with ViraPower Adenoviral Expression System (Invitrogen) according to manufacturer's instruction. Briefly, pAD-XBP1s T48A, pAD-XBP1s S61A, pAd-XBP1s T48A/S61A and pAd-MKK6Glu were linearized by restriction endonuclease digestion with PacI and transfected to 293A cells by Lipofectamine. The media was changed with fresh media every other day until the cytopathic effect was observed. When cytopathic effect reached to 80%, cells were collected by centrifugation. The pellet was resuspended in PBS and subjected to freezing and thawing cycles at −80° C. and 37° C. for 4 times. The supernatant containing the virus was prepared by centrifugation at 4,000 rpm for 20 min at room temperature. […]
# Western blot analysis was performed as previously described (Ozcan, L., et al. (2009) Cell metabolism 9:35-51). […] Relative protein levels were quantified by Image J program.
smiles,measurement,setting,value
COc1ccc(C[C@H]2NC[C@H](O)[C@H]2OC(C)=O)cc1 [anisomycin],cytoplasmic levels of XBP1s vs vehicle-treated cells,XBP1s [1],28.8 times
same,nuclear levels of XBP1s vs vehicle-treated cells,XBP1s [1],141.8 times
same,enhanced stability of XBP1s mRNA,"XBP1s mRNA; MK2−/− cells, anisomycin 25 ng/ml",completely lost
same,XBP1s mRNA stability,"XBP1s mRNA; TTP−/− cells, anisomycin 25 ng/ml one hour, actinomycin D 10 μg/ml",capable of increasing XBP1s mRNA stability
same,XBP1s mRNA levels,"XBP1s mRNA; XBP1s expressing control cells, one hour",dramatic increase in mRNA of XBP1s; also recorded: increased the mRNA levels of XBP1s in a dose dependent manner
same,XBP1s levels,XBP1s [2],dramatically upregulating their XBP1s levels
